In patent US12257246B2, “Composition of 2,4,6-trifluoro-n-[6-(1-methyl-piperidin-4-carbonyl)-pyridin-2-yl[-benzamide” (CoLucid Pharmaceuticals, Inc., priority 2009, dated 2025):
“Also recorded” adds a separate entry of the source. Marks after values point to notes of the source that are not given here.

Tested on: migraine attack
Test: Intravenous dose-finding study in acute migraine: headache response (moderate or severe becoming mild or none) and secondary efficacy
Type: in vivo, human
Method: Preclinical and early clinical experiments predict acute anti-migraine efficacy of Compound I that is mediated through a non-vascular, primarily neural, mechanism. In a multi-centre, placebo-controlled, double-blind, group-sequential, adaptive treatment-assignment, proof-of-concept and dose-finding study, 130 patients were treated in-hospital during a migraine attack. Patients were allocated to an intravenous dose level of Compound I or placebo in small cohorts. The starting dose was 2.5 mg. Subsequent doses were adjusted, up or down, according to the safety and efficacy seen in the preceding cohort. The primary outcome measure was headache response defined as improvement from moderate or severe headache at baseline to mild or no headache at 2 hours post-dose. The study was designed to explore the overall dose response relationship but was not powered to differentiate individual doses from placebo, nor to detect effect differences for other migraine symptoms.
The study used a prospective, randomized, double-blind, placebo-controlled design with group-sequential adaptive-treatment assignment (Olesen J et al., N Engl J Med 2004: 350: 1104-10; Hall D B et al., Contemporary Clinical Trials 2005; 26: 349-63). […] The first cohort was allocated to the 2.5 mg dose level. The dose used in subsequent cohorts depended on the headache response (moderate or severe headache reduced to mild or none at 2 hours) of the previous cohort: if 2 or less of the 4 active-treated patients had responded, the dose was increased, and if 3 or more of the 4 active-treated patients had responded, the dose was reduced. The dose adjustment rules were chosen to identify doses of Compound I with efficacy similar to or better than an oral triptan. […] The occurrence of a drug-related serious adverse event would lead to automatic suspension of the randomization pending a safety review.
Patients were initially screened for eligibility at an out-patient visit outside a migraine attack, and were invited to return to the clinic for treatment with study medication of a new, moderate or severe migraine attack within 4 hours of onset. On return to the clinic, eligibility for the study was reconfirmed and the patient was randomized. Patients were eligible for the study if they were between 18 and 65 years of age and had at least a 1 year history of migraine with or without aura fulfilling the IHS diagnostic criteria 1.1 and 1.2.1 (2004), with a migraine onset before the age of 50 years (Headache Classification Subcommittee of the International Headache Society. The International Classification of Headache Disorders (second edition). Cephalalgia 2004: 24; Supp11:1-160). Patients had to be experiencing between 1 and 8 migraine attacks a month and not be using migraine prophylactic medication. Patients were in good general health and had no evidence of vascular disease or hypertension. Patients with previous intolerance of triptans were excluded. Pregnant or breast-feeding women were excluded, as were women of childbearing potential who were not using a highly reliable form of contraception.
On return of the patient to the clinic, instructions for dilution of study drug were obtained from an online randomization system by a pharmacist or other study personnel, independent of the investigator, and the study drug for infusion was prepared. Both investigator and pharmacist were blinded with regard to active or placebo and only the pharmacist knew the dilution. All patients received a 60 ml intravenous infusion over 20 minutes. Efficacy and safety data before and after administration of study drug were entered immediately into an electronic data capture system, so allowing the headache response to be used to drive dose-allocation for subsequent cohorts.
Data were entered concurrently into an online electronic data capture system. Patients were discharged from the clinic after 4 h and continued to record migraine symptoms and adverse events until 24 h using a diary card. […]

CN1CCC(C(=O)c2cccc(NC(=O)c3c(F)cc(F)cc3F)n2)CC1 [Compound I, 2,4,6-trifluoro-N-[6-(1-methyl-piperidin-4-ylcarbonyl)-pyridin-2-yl]-benzamide]
Phonophobia 2 h (20 mg iv): 25.0% of Patients
Photophobia 2 h (20 mg iv): 42.9% of Patients
Sustained pain free (20 mg iv): 17.9% of Patients
Sustained pain response (20 mg iv): 35.7% of Patients
Use of rescue medication, 2-24 h (20 mg iv): 53.6% of Patients
Proportion of Patients with headache response (20 mg iv, 10 min post dose): 14.3% of Patients
Proportion of Patients with headache response (20 mg iv, 20 min post dose): 39.3% of Patients
Proportion of Patients with headache response (20 mg iv, 40 min post dose): 50.0% of Patients
Proportion of Patients with headache response (20 mg iv, 60 min post dose): 53.6% of Patients
Proportion of Patients with headache response (20 mg iv, 90 min post dose): 53.6% of Patients
Proportion of Patients with headache response (20 mg iv, 120 min post dose): 64.3% of Patients
Proportion of Patients with headache response (20 mg iv, 180 min post dose): 60.7* Percent of Patients
Proportion of Patients with headache response (20 mg iv, 240 min post dose): 57.1* Percent of Patients
Impression: very much/much better 2h (30 mg iv): 68.8% of Patients
Nausea 2 h (30 mg iv): 6.3% of Patients
No/mild disability 2 h (30 mg iv): 75.1% of Patients
Pain freedom 2 h (30 mg iv): 37.5% of Patients
Phonophobia 2 h (30 mg iv): 25.0% of Patients
Photophobia 2 h (30 mg iv): 25.0% of Patients
Sustained pain free (30 mg iv): 18.8% of Patients
Sustained pain response (30 mg iv): 56.3% of Patients
Use of rescue medication, 2-24 h (30 mg iv): 37.5% of Patients
associated symptoms (photophobia, phonophobia, nausea) (30 mg iv): reduced associated symptoms of photophobia, phonophobia, and nausea
headache recurrence within 24 hours (30 mg iv): reduced headache recurrence
moderate or severe disability reported (30 mg iv): reduced the percent of moderate or severe disability reported
patient global impression 2 hours post dose (30 mg iv): increased the number of patients who felt much or very much better; also recorded: increase in the number of patients who felt much better or very much better
use of rescue medication (30 mg iv): reduced the use of rescue medication
pain free at 2 hours versus placebo (30 mg iv over 20 minutes): completely abolished headache in a greater number of patients than placebo; also recorded: completely abolishes headache (‘pain free’) in a greater number of patients than placebo
Proportion of Patients with headache response (30 mg iv, 10 min post dose): 12.5% of Patients
Proportion of Patients with headache response (30 mg iv, 20 min post dose): 50.0% of Patients
Proportion of Patients with headache response (30 mg iv, 40 min post dose): 75.0* Percent of Patients
Proportion of Patients with headache response (30 mg iv, 60 min post dose): 75.0* Percent of Patients
Proportion of Patients with headache response (30 mg iv, 90 min post dose): 68.8% of Patients
Proportion of Patients with headache response (30 mg iv, 120 min post dose): 68.8% of Patients
Proportion of Patients with headache response (30 mg iv, 180 min post dose): 68.8* Percent of Patients
Proportion of Patients with headache response (30 mg iv, 240 min post dose): 68.8* Percent of Patients
Impression: very much/much better 2h (45 mg iv): 50.0% of Patients
Nausea 2 h (45 mg iv): 25.0% of Patients
No/mild disability 2 h (45 mg iv): 25.0% of Patients
Pain freedom 2 h (45 mg iv): 25.0% of Patients
Phonophobia 2 h (45 mg iv): 25.0% of Patients
Photophobia 2 h (45 mg iv): 25.0% of Patients
Sustained pain free (45 mg iv): 25.0% of Patients
Sustained pain response (45 mg iv): 25.0% of Patients
Use of rescue medication, 2-24 h (45 mg iv): 25.0% of Patients
Proportion of Patients with headache response (45 mg iv, 10 min post dose): 75.0* Percent of Patients
Proportion of Patients with headache response (45 mg iv, 20 min post dose): 75.0% of Patients
Proportion of Patients with headache response (45 mg iv, 40 min post dose): 75.0% of Patients
Proportion of Patients with headache response (45 mg iv, 60 min post dose): 50.0% of Patients
Proportion of Patients with headache response (45 mg iv, 90 min post dose): 75.0% of Patients
Proportion of Patients with headache response (45 mg iv, 120 min post dose): 75.0% of Patients
Proportion of Patients with headache response (45 mg iv, 180 min post dose): 75.0% of Patients
Proportion of Patients with headache response (45 mg iv, 240 min post dose): 25.0% of Patients
time at which response starts to separate from placebo (doses of 20 mg and above, after start of infusion): 20 min
efficacy in acute treatment of migraine (intravenous doses of 20 mg and higher): proved effective
effective dose identified by predefined stopping rules (iv over 20 min, primary endpoint): 20 mg
